From patent publication US20230111310A1, “CARBOXYLIC ACID DERIVATIVE-SUBSTITUTED IMINO ARYL COMPOUND, PREPARATION METHOD THEREFOR, HERBICIDAL COMPOSITION AND USE THEREOF” (Qingdao Kingagroot Chemical Compound Co., Ltd., priority 2020, published 2023)

Tests used:
Test in all cases: Weeding effect in post-emergence stage
Assay type in all cases: in vivo
Details in all cases: level of fresh weight growth control rate
Digitaria sanguinalis = test system: Digitaria sanguinalis
Summary of the method: (§1)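 Compound, dissolved in acetone and diluted in water with Tween 80 plus methyl oleate EC (1.5 liter/ha), is sprayed onto 2-3 leaf potted plants. Rates span 7.5–500 g/ha. After 3 weeks of greenhouse culture, weeding effect is counted as the mean of triplicates.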

Alopecurus japonicus = test system: Alopecurus japonicus
Summary of the method: as §1

Setaria viridis = test system: Setaria viridis
Summary of the method: as §1

Abutilon theophrasti = test system: Abutilon theophrasti
Summary of the method: as §1

Eleusine indica = test system: Eleusine indica
Summary of the method: as §1

Echinochloa crusgalli = test system: Echinochloa crusgalli
Summary of the method: as §1

Compound	Weeding effect in post-emergence stage, Digitaria sanguinalis (Digitaria sanguinalis; Dose 15 g/ha)	Weeding effect in post-emergence stage, Alopecurus japonicus (Alopecurus japonicus; Dose 15 g/ha)	Weeding effect in post-emergence stage, Setaria viridis (Setaria viridis; Dose 15 g/ha)	Weeding effect in post-emergence stage, Abutilon theophrasti (Abutilon theophrasti; Dose 15 g/ha)	Weeding effect in post-emergence stage, Eleusine indica (Eleusine indica; Dose 15 g/ha)	Weeding effect in post-emergence stage, Echinochloa crusgalli (Echinochloa crusgalli; Dose 15 g/ha)	further results
CCOC(=O)[C@@H](F)O/N=C/c1cc(-n2c(=O)cc(C(F)(F)F)n(C)c2=O)c(F)cc1Cl [313(R)]	5 (Level 5: growth control rate is above 85%)	5 (Level 5: growth control rate is above 85%)	5 (Level 5: growth control rate is above 85%)	5 (Level 5: growth control rate is above 85%)	5 (Level 5: growth control rate is above 85%)	5 (Level 5: growth control rate is above 85%)	
CCC[C@@H](O/N=C/c1cc(-n2c(=O)cc(C(F)(F)F)n(C)c2=O)c(F)cc1Cl)C(=O)OC [316(R)]	5 (Level 5: growth control rate is above 85%)	5 (Level 5: growth control rate is above 85%)	5 (Level 5: growth control rate is above 85%)	5 (Level 5: growth control rate is above 85%)	5 (Level 5: growth control rate is above 85%)	5 (Level 5: growth control rate is above 85%)	
COC(=O)[C@H](O/N=C/c1cc(-n2c(=O)cc(C(F)(F)F)n(C)c2=O)c(F)cc1Cl)C(C)C [318(R)]	5 (Level 5: growth control rate is above 85%)	5 (Level 5: growth control rate is above 85%)	5 (Level 5: growth control rate is above 85%)	5 (Level 5: growth control rate is above 85%)	5 (Level 5: growth control rate is above 85%)	5 (Level 5: growth control rate is above 85%)	
CCOC(=O)[C@H](O/N=C/c1cc(-n2c(=O)cc(C(F)(F)F)n(C)c2=O)c(F)cc1Cl)C1CC1 [319(R)]							Weeding effect in post-emergence stage, Digitaria sanguinalis (Digitaria sanguinalis; Dose 30 g/ha): 5 (Level 5: growth control rate is above 85%); Weeding effect in post-emergence stage, Alopecurus japonicus (Alopecurus japonicus; Dose 30 g/ha): 5 (Level 5: growth control rate is above 85%); Weeding effect in post-emergence stage, Setaria viridis (Setaria viridis; Dose 30 g/ha): 5 (Level 5: growth control rate is above 85%); Weeding effect in post-emergence stage, Abutilon theophrasti (Abutilon theophrasti; Dose 30 g/ha): 5 (Level 5: growth control rate is above 85%); Weeding effect in post-emergence stage, Eleusine indica (Eleusine indica; Dose 30 g/ha): 5 (Level 5: growth control rate is above 85%); Weeding effect in post-emergence stage, Echinochloa crusgalli (Echinochloa crusgalli; Dose 30 g/ha): 5 (Level 5: growth control rate is above 85%)
COC(=O)[C@H](OC)O/N=C/c1cc(-n2c(=O)cc(C(F)(F)F)n(C)c2=O)c(F)cc1Cl [321(R)]							Weeding effect in post-emergence stage, Digitaria sanguinalis (Digitaria sanguinalis; Dose 120 g/ha): 5 (Level 5: growth control rate is above 85%); Weeding effect in post-emergence stage, Alopecurus japonicus (Alopecurus japonicus; Dose 120 g/ha): 5 (Level 5: growth control rate is above 85%); Weeding effect in post-emergence stage, Setaria viridis (Setaria viridis; Dose 120 g/ha): 5 (Level 5: growth control rate is above 85%); Weeding effect in post-emergence stage, Abutilon theophrasti (Abutilon theophrasti; Dose 120 g/ha): 5 (Level 5: growth control rate is above 85%); Weeding effect in post-emergence stage, Eleusine indica (Eleusine indica; Dose 120 g/ha): 5 (Level 5: growth control rate is above 85%); Weeding effect in post-emergence stage, Echinochloa crusgalli (Echinochloa crusgalli; Dose 120 g/ha): 5 (Level 5: growth control rate is above 85%)
CCOC(=O)[C@H](OC)O/N=C/c1cc(-n2c(=O)cc(C(F)(F)F)n(C)c2=O)c(F)cc1Cl [322(R)]							Weeding effect in post-emergence stage, Digitaria sanguinalis (Digitaria sanguinalis; Dose 120 g/ha): 5 (Level 5: growth control rate is above 85%); Weeding effect in post-emergence stage, Alopecurus japonicus (Alopecurus japonicus; Dose 120 g/ha): 5 (Level 5: growth control rate is above 85%); Weeding effect in post-emergence stage, Setaria viridis (Setaria viridis; Dose 120 g/ha): 5 (Level 5: growth control rate is above 85%); Weeding effect in post-emergence stage, Abutilon theophrasti (Abutilon theophrasti; Dose 120 g/ha): 5 (Level 5: growth control rate is above 85%); Weeding effect in post-emergence stage, Eleusine indica (Eleusine indica; Dose 120 g/ha): 5 (Level 5: growth control rate is above 85%); Weeding effect in post-emergence stage, Echinochloa crusgalli (Echinochloa crusgalli; Dose 120 g/ha): 5 (Level 5: growth control rate is above 85%)
CCO[C@H](O/N=C/c1cc(-n2c(=O)cc(C(F)(F)F)n(C)c2=O)c(F)cc1Cl)C(=O)OC [331(R)]	5 (Level 5: growth control rate is above 85%)	5 (Level 5: growth control rate is above 85%)	5 (Level 5: growth control rate is above 85%)	5 (Level 5: growth control rate is above 85%)	5 (Level 5: growth control rate is above 85%)	5 (Level 5: growth control rate is above 85%)	
